# Measured values as given in patent US20240308987A1, “SMALL MOLECULE INHIBITOR AGAINST NASOPHARYNGEAL CARCINOMA, PREPARATION METHOD AND APPLICATION THEREOF” (SHENZHEN BAY LABORATORY, priority 2021, published 2024).
# Tested on: C666-1 cells
# Test: C666-1 Cell Viability Assay (Resazurin cytotoxicity test)
# Assay type: cell-based
# Settings: Homo sapiens, C6661, EB virus-positive C666-1 cells, 72 hours treatment, 100-0.78 micromole/L, read-out: Inhibitory Rate
# Method: In order to evaluate the inhibitory effect of the small molecular compound of the present disclosure on EBNA1 at the cellular level, a cytotoxicity test was performed.
# As mentioned in the Background of the present disclosure, nasopharyngeal carcinoma is a kind of disease highly associated with latent infection of EB virus. EB virus in latent state only expresses limited proteins to maintain its genome replication, among which EBNA1 protein is an essential functional protein. Studies have confirmed that inhibition of EBNA1 can reduce the proliferation of the corresponding nasopharyngeal carcinoma cells or kill them. Therefore, EB virus-positive nasopharyngeal carcinoma tumor cells (C666-1 cells) are selected for test to verify the effect of the small molecular compound of the present disclosure.
# During testing, 100 microliters of different cell lines were inoculated onto a transparent 96-well plate, and 5×10^3 cells were inoculated in each well for C666-1 cells. After the cells were cultured in an incubator under […] at 37° C. for 24 hours, 10 microliters of compound with a concentration ranging from 1 mmol/L to 7.8 micromol/L were added to each well (8 points, double dilution, the final concentration was 100-0.78 micromole/L), and treated in the incubator under carbon dioxide at 37° C. for 72 hours. Cell viability was assessed using the redox indicator Resazurin. After addition of 10 microliters of 600 micromole/liter Resazurin to each well and incubation at 37° C. for 3 hours. Using a Tecan microplate reader, the fluorescence signals were detected at an […]. A software was used to fit the inhibition curve and calculate half-maximal effect concentration (EC50). The selectivity of compound activity was assessed by comparing the EC50 values of EB virus-positive and EB virus-negative cell lines.
row,Compound,EC50
1,"O=C(Nc1ccc(OC2CN(c3cccc(C(=O)NO)c3-n3cccc3)C2)cc1)c1cccnc1 [Example 31b, N-(4-((1-(3-(hydroxycarbamoyl)-2-(1H-pyrrol-1-yl)phenyl)azetidin-3-yl)oxy)phenyl) nicotinamide]",< 1 µM
2,"O=C(NO)c1cccc(N2CC(Oc3ccc(COc4cccnc4)cc3)C2)c1-c1ccccc1 [Example 17b, N-hydroxy-6-(3-(4-((pyridin-3-yloxy)methyl)phenoxy)azetidin-1-yl)-[1,1′-biphenyl]-2-carboxamide]",1 to 10 µM
3,"Cc1cc(OC2CN(c3cccc(C(=O)O)c3-n3cccc3)C2)ccc1COc1cccnc1 [Example 15a, 3-(3-(3-methyl-4-((pyridin-3-yloxy)methyl)phenoxy)azetidin-1-yl)-2-(1H-pyrrol-1-yl) benzoic acid]",10 to 50 µM
4,"O=C(O)c1cccc(N2CC(Oc3ccc(CNc4cccnc4)cc3)C2)c1-n1cccc1 [Example 23a, 3-(3-(4-((pyridin-3-ylamino)methyl)phenoxy)azetidin-1-yl)-2-(1H-pyrrol-1-yl) benzoic acid]",10 to 50 µM
5,"O=C(Cc1ccc(C#Cc2cccc(C(=O)NO)c2-c2ccccc2)cc1)Nc1cccnc1 [Example 60b, N-hydroxy-6-((4-(2-oxo-2-(pyridin-3-ylamino)ethyl)phenyl)ethynyl)-[1,1′-biphenyl]-2-carboxamide]",< 1 µM
6,"O=C(Nc1ccc(C#Cc2cccc(C(=O)NO)c2-c2ccccc2)cc1)Nc1cccnc1 [Example 58b, N-hydroxy-6-((4-(3-(pyridin-3-yl)ureido)phenyl)ethynyl)-[1,1′-biphenyl]-2-carboxamide]",< 1 µM
7,"COC(=O)c1cccc(N2CC(Oc3ccc(CNc4cccnc4)cc3)C2)c1-c1ccccc1 [Example 39, methyl 6-(3-(4-((pyridin-3-ylamino)methyl)phenoxy)azetidin-1-yl)-[1,1′-biphenyl]-2-carboxylate]",> 50 µM
8,"COC(=O)c1cccc(N2CC(Oc3ccc(NC(=O)Nc4cccc(C(F)(F)F)c4)cc3)C2)c1-c1cccc(Cl)c1 [Example 37, methyl 3′-chloro-6-(3-(4-(3-(3-(trifluoromethyl)phenyl)ureido)phenoxy)azetidin-1-yl)-[1,1′-biphenyl]-2-carboxylate]",10 to 50 µM
9,"O=C(O)c1cccc(N2CC(Oc3ccc(COc4ncccn4)cc3)C2)c1-n1cccc1 [Example 11a, 3-(3-(4-((pyrimidin-2-yloxy)methyl)phenoxy)azetidin-1-yl)-2-(1H-pyrrol-1-yl) benzoic acid]",> 50 µM
10,"CNC(=O)c1cccc(N2CC(Oc3ccc(NC(=O)Cc4cccnc4)cc3)C2)c1-c1ccccc1 [Example 45c, N-methyl-6-(3-(4-(2-(pyridin-3-yl)acetamido)phenoxy)azetidin-1-yl)-[1,1′-biphenyl]-2-carboxamide]",< 1 µM
11,"COC(=O)c1cccc(N2CC(Oc3ccc(NC(=O)Cc4cccnc4)c(F)c3)C2)c1-c1ccccc1 [Example 54, methyl 6-(3-(3-fluoro-4-(2-(pyridin-3-yl)acetamido)phenoxy)azetidin-1-yl)-[1,1′-biphenyl]-2-carboxylate]",1 to 10 µM
12,"O=C(Cc1ccc(OC2CN(c3cccc(C(=O)NO)c3)C2)cc1)Nc1cccnc1 [Example 43b, N-hydroxy-3-(3-(4-(2-oxo-2-(pyridin-3-ylamino)ethyl)phenoxy)azetidin-1-yl) benzamide]",< 1 µM
13,"O=C(Nc1ccc(OC2CN(c3cccc(C(=O)O)c3-n3cccc3)C2)cc1)Nc1cncc(F)c1 [Example 46a, 3-(3-(4-(3-(5-fluoropyridin-3-yl)ureido)phenoxy)azetidin-1-yl)-2-(1H-pyrrol-1-yl) benzoic acid]",1 to 10 µM
14,"O=C(NO)c1cccc(N2CC(Oc3ccc(CNc4cccnc4)cc3)C2)c1-n1cccc1 [Example 23b, N-hydroxy-3-(3-(4-((pyridin-3-ylamino)methyl)phenoxy)azetidin-1-yl)-2-(1H-pyrrol-1-yl) benzamide]",< 1 µM
15,"COC(=O)c1cccc(N2CC(Oc3ccc(COc4cnc5ccccc5c4)cc3)C2)c1-n1cccc1 [Example 9, methyl 2-(1H-pyrrol-1-yl)-3-(3-(4-((quinolin-3-yloxy)methyl)phenoxy)azetidin-1-yl) benzoate]",> 50 µM
16,"COC(=O)c1cccc(N2CC(Oc3ccc(Oc4ccncc4)cc3)C2)c1-n1cccc1 [Example 26, methyl 3-(3-(4-(pyridin-4-yloxy)phenoxy)azetidin-1-yl)-2-(1H-pyrrol-1 - yl) benzoate]",1 to 10 µM
17,"COC(=O)c1cccc(N2CC(Oc3ccc(COc4cccnc4)c(F)c3)C2)c1-n1cccc1 [Example 20, methyl 3-(3-(3-fluoro-4-((pyridin-3-yloxy)methyl)phenoxy)azetidin-1-yl)-2-(1H-pyrrol-1-yl) benzoate]",1 to 10 µM

row,Compound,EC50
1,"COC(=O)c1cccc(N2CC(Oc3ccc(CC(=O)Nc4cccnc4)cc3)C2)c1 [Example 43, methyl 3-(3-(4-(2-oxo-2-(pyridin-3-ylamino)ethyl)phenoxy)azetidin-1-yl) benzoate]",1 to 10 µM
2,"COC(=O)c1cccc(N2CC(Oc3ccc(COc4ccncc4)cc3)C2)c1-n1cccc1 [Example 8, methyl 3-(3-(4-((pyridin-4-yloxy)methyl)phenoxy)azetidin-1-yl)-2-(1H-pyrrol-1-yl) benzoate]",10 to 50 µM
3,"O=C(Nc1ccc(OC2CN(c3cccc(C(=O)O)c3)C2)cc1)Nc1cccnc1 [Example 50a, 3-(3-(4-(3-(pyridin-3-yl)ureido)phenoxy)azetidin-1-yl) benzoic acid]",1 to 10 µM
4,"COC(=O)c1cccc(N2CC(Oc3ccc(COc4ccn(C)n4)cc3)C2)c1-n1cccc1 [Example 32, methyl 3-(3-(4-(((1-methyl-1H-pyrazol-3-yl)oxy)methyl)phenoxy)azetidin-1-yl)-2-(1H-pyrrol-1-yl) benzoate]",> 50 µM
5,"COC(=O)c1cccc(N2CC(Oc3ccc(NC(=O)Cc4cccnc4)cc3)C2)c1 [Example 49, methyl 3-(3-(4-(2-(pyridin-3-yl)acetamido)phenoxy)azetidin-1-yl) benzoate]",1 to 10 µM
6,"CNC(=O)c1cccc(N2CC(Oc3ccc(COc4cccnc4)cc3)C2)c1-n1cccc1 [Example 1d, N-methyl-3-(3-(4-((pyridin-3-yloxy)methyl)phenoxy)azetidin-1-yl)-2-(1H-pyrrol-1-yl) benzamide]",< 1 µM
7,"O=C(Cc1cccnc1)Nc1ccc(OC2CN(c3ccccc3-c3ccccc3)C2)cc1 [Example 45e, N-(4-((1-([1,1′-biphenyl]-2-yl)azetidin-3-yl)oxy)phenyl)-2-(pyridin-3-yl)acetamide]",10 to 50 µM
8,"O=C(Cc1cccnc1)Nc1ccc(OC2CN(c3cccc(C(=O)O)c3-c3cccc(Cl)c3)C2)cc1 [Example 48a, 3′-chloro-6-(3-(4-(2-(pyridin-3-yl)acetamido)phenoxy)azetidin-1-yl)-[1,1′-biphenyl]-2-carboxylic acid]",10 to 50 µM
9,"COC(=O)c1cccc(N2CC(Oc3ccc(NC(=O)c4cccnc4)cc3)C2)c1-n1cccc1 [Example 31, methyl 3-(3-(4-(nicotinamido)phenoxy)azetidin-1-yl)-2-(1H-pyrrol-1-yl) benzoate]",10 to 50 µM
10,"O=C(Cc1ccc(OC2CN(c3ccccc3)C2)cc1)Nc1cccnc1 [Example 43c, 2-(4-((1-phenylazetidin-3-yl)oxy)phenyl)-N-(pyridin-3-yl) acetamide]",10 to 50 µM
11,"O=C(O)c1cccc(N2CC(Oc3ccc(/C=C/c4cccnc4)cc3)C2)c1-c1ccccc1 [Example 36a, (E)-6-(3-(4-(2-(pyridin-3-yl)vinyl)phenoxy)azetidin-1-yl)-[1,1′-biphenyl]-2-carboxylic acid]",10 to 50 µM
12,"O=C(Cc1ccc(C#Cc2cccc(C(=O)O)c2-c2ccc3cc[nH]c3c2)cc1)Nc1cccnc1 [Example 61a, 2-(1H-indol-6-yl)-3-((4-(2-oxo-2-(pyridin-3-ylamino)ethyl)phenyl)ethynyl) benzoic acid]",< 1 µM
13,"O=C(O)c1cccc(N2CC(Oc3ccc(COc4cccs4)cc3)C2)c1-n1cccc1 [Example 30a, 2-(1H-pyrrol-1-yl)-3-(3-(4-((thiophen-2-yloxy)methyl)phenoxy)azetidin-1-yl) benzoic acid]",> 50 µM
14,"COC(=O)c1cccc(N2CC(Oc3ccc(NC(=O)Nc4cncc(F)c4)cc3)C2)c1-n1cccc1 [Example 46, methyl 3-(3-(4-(3-(5-fluoropyridin-3-yl)ureido)phenoxy)azetidin-1-yl)-2-(1H-pyrrol-1-yl) benzoate]",1 to 10 µM
15,"O=C(NO)c1cccc(N2CC(Oc3ccc(CNc4cccnc4)cc3)C2)c1-c1ccccc1 [Example 39b, N-hydroxy-6-(3-(4-((pyridin-3-ylamino)methyl)phenoxy)azetidin-1-yl)-[1,1′-biphenyl]-2-carboxamide]",< 1 µM
16,"O=C(Cc1ccc(OC2CN(c3cccc(C(=O)O)c3)C2)cc1)Nc1cccnc1 [Example 43a, 3-(3-(4-(2-oxo-2-(pyridin-3-ylamino)ethyl)phenoxy)azetidin-1-yl) benzoic acid]",1 to 10 µM
17,"CN(C(=O)Nc1cccc(C#N)c1)c1ccc(OC2CN(c3cccc(C(=O)O)c3-n3cccc3)C2)cc1 [Example 7a, 3-(3-(4-(3-(3-cyanophenyl)-1 - methylureido)phenoxy)azetidin-1-yl)-2-(1H-pyrrol-1-yl) benzoic acid]",10 to 50 µM
